Patent US20130197030A1, “Substituted 1,3-Dioxanes and There Uses” (Evolva Sa, priority 2007, published 2013)

Key:
[1] = tested on: arterial thrombosis in a mouse model; test: Arterial thrombosis in a mouse model (FeCl3, femoral artery); type: in vivo; settings: mice; dose not given
Description: The solutions are diluted 3.3-fold in saline and 100 μl/25 g is injected. Thus, the above-mentioned doses of 100 and 300 mg/kg of compound correspond to final doses of 30 and 100 mg/kg.
During the experiments, a soluble salt of the drug is provided (e.g., potassium salt of compound C), diluted in saline. Of this formulation, 100 μl/25 g is injected i.v. in the tail vein (dose of 100 mg/kg).
Solutions are injected (100 μl/25 g body weight) i.v. in the tail vein over 2 min to obtain doses of each compound of 30 mg/kg and 100 mg/kg. Aspirin is given the same way at a dose of 200 mg/kg. Clopidogrel is administered by oral gavage at a dose of 20 mg/kg at 6-7 hours prior to the experiment. The animals assigned to each group are matched for body weight. Mice are typically 8-10 weeks old males and are in a 100% Swiss genetic background.
The flow in each image is expressed as a percentage of that at the contralateral side, and data are averaged for all 120 images to determine total flow. The same analysis is performed for 10 min intervals (which gives essentially the same information as the area under the curve). […] Flow before treatment is recorded as 100%, and that in occluded arteries as 0%. At the end of the experiment, blood is collected on 0.01M citrate buffer by heart puncture for determination of blood cell counts. Plasma is prepared by centrifugation and stored at −20° C. for determination of drug levels.
Statistical analysis for differences between two groups is performed by non-parametric Student t-test. Occlusion times >30 min were considered equal to 30 min for statistical analysis. Significance is set at p<0.05.

[2] = tested on: U-46619-induced platelet aggregation; test: TP receptor platelet aggregation, rabbit; type: cell-based, New Zealand Rabbit
Description: Thrombosis Research 33:277-288.
TP Receptor Platelet Aggregation—Rabbit:
New Zealand Rabbit (2.75±0.25 kg) platelet rich plasma
Assay: Inhibition of 1.5 μM U-46619-induced platelet aggregation Incubation Time, Temp: 5 minutes at 37° C. Incubation Buffer Trisodium Citrate (0.13 M)-treated platelet rich plasma
Time of Assessment: 5 minutes
Quantification Method Optical Density Change

3T3-L1 adipocytes = test: Insulin-stimulated glucose uptake assay; type: cell-based; settings: compared with Compound A (racemate)
Description: Briefly, glucose uptake is measured in 3T3-L1 adipocytes cultured in 96-well plates. On day 6 of differentiation (according to the MDI-protocol, see above) cells are treated with either vehicle, positive control (Avandia) or test compound. 48 hours later the ability of adipocytes to take up glucose in response to insulin is determined. Cells are washed with serum-free DMEM+antibiotics and incubated in the same medium at 37° C. for 2 hours. Cells are then washed and subsequently incubated in Krebs-Ringer-Hepes (KRP) buffer for 30 min at 37° C. Hereafter, insulin is added to the cells to a final concentration of 10 nM and cells are then incubated at 37° C. for 15 min. Glucose uptake is initiated by the addition of KRP buffer supplemented with 10 mM [^14C] 2-deoxy-D-glucose. After further incubation for 15 min at 37° C., glucose uptake is terminated by addition of a large surplus of cold glucose and three rapid washes of ice-cold PBS. Cells are then lysed and ^14C-radioactivity determined by scintillation counting.

KKA^y mice = test: In vivo effect on serum glucose and other parameters in KKA^y mice; settings: dose not given
Description: 52 male KKA^y mice are obtained commercially (e.g., from Clea Japan) at an age of 6 weeks and put on a high fat diet upon arrival. Individual mice were housed in IVC Type II cages during both the acclimatization and the experimental phase. Both food (high fat diet) and water are supplied ad libitum.
1 animal per cage. […] Lights on at 06:00 a.m. Temperature: 21-25° C. Relative humidity target range: 55-60%.
Mice were randomized into treatment groups according to their 4-h fasting blood glucose.
4 hours after the last administration, non-fasting conditions.
Gamma irradiated high fat diet is commercially available (e.g., Research Diets, Inc. New Brunswick, N.J. (Product # D12266BI)).
Blood is collected into heparin containing glass capillaries which are subsequently centrifuged in a “Haematokrit 24” centrifuge (Hettich) at 15′200×g for 10 minutes at room temperature to obtain the hematocrit value.
The following serum parameters are determined on a COBAS INTEGRA 800 auto analyzer (Roche Diagnostics, Switzerland) using the reagents and protocols provided by the supplier.
All measurements are made on Day 14 of administration, except for the food intake and body weight measurements that are made on Day 12.

[3] = biological target: T1, Thromboxane receptor (TP) (Homo sapiens, UniProt P21731); test: TP receptor radioligand binding; settings: Human recombinant HEK-293 cells, 5 nM [3H] SQ-29548
T1 construct: expressed in transfected cells; host or cells: HEK-293 cells
T1 sequence (P21731 1-343): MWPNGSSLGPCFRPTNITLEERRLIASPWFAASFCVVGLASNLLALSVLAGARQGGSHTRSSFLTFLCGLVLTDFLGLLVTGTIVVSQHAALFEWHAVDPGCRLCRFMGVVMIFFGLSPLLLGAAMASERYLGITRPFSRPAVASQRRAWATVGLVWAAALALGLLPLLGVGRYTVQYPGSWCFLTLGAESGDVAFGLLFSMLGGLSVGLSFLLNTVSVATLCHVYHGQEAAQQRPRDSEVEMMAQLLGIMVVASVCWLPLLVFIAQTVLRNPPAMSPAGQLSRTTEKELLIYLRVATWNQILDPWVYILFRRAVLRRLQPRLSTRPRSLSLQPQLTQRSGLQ
Description: The compounds were tested on radioligand binding assays for thromboxane receptor binding essentially as described by Hedberg et al. (1988) J. Pharmacol. Exp. Ther. 245:786-792 and Saussy et al. (1986) J. Biol. Chem. 261: 3025-3029 according to the following:
TP Receptor Radioligand Binding Studies:
Human recombinant HEK-293 cells,
Incubation Time, Temp: 30 minutes at 25° C.
Incubation Buffer: 50 mM Tris-HCl, pH 7.4, 154 mM NaCl
Non-Specific Ligand: 1 μM SQ-29548
The data were transformed to semi-log and then analysed using non-linear regression to a four-parameter dose-response curve Y=Bottom+(Top−Bottom)/(1+10̂((LogEC50−X)*HillSlope)) using the log(agonist) vs. response—Variable slope function of GraphPad Prism software (http://graphpad.com/help/prism5/prism5help.html?usingnonlinear_regression_step_by_s.htm).

O=C(O)CC/C=C\CC1COC(c2coc3ccc(Cl)cc3c2=O)OC1c1ccccc1O (racemic) [Compound 3, (Z)-6-(2-(6-Chloro-4-oxo-4H-chromen-3-yl)-4-(2-hydroxyphenyl)-1,3-dioxan-5-yl)hex-4-enoic acid]
Occlusion time [1]: prolongs the occlusion time
Total blood flow [1]: improves total blood flow
Inhibition of platelet aggregation (in words) [2]: potent inhibitors of platelet aggregation
inhibition at 30 µM ([2]; Oryctolagus cuniculus, at 30 μM, 1.5 μM U-46619, platelet rich plasma): 100%
Effect in glucose uptake assays (in words) (3T3-L1 adipocytes): effect similar if not better to Compound A (racemate)
FFA (KKA^y mice; 14-day oral gavage BID): decreases the FFA
HbA1c levels (KKA^y mice; 14-day oral gavage BID): decreased
Heart weight (KKA^y mice; 14-day oral gavage BID): has no effect on heart weight
Body weight (KKA^y mice; oral gavage BID): do not alter body weight
IC50 [3]: 0.0152 µM
Ki [3]: 0.0099 µM
inhibition at 10 µM ([3]; at 10 μM): 97%
